This note sets out measurements from patent US20250171437A1 (Agios Pharmaceuticals,Inc., priority 2022, published 2025).

Structures are written as SMILES.

The experiment concerns the target T1, human PAH with the R408W mutation (A375 R408W cells) (Homo sapiens, UniProt P00439, R408W).
T1 construct: expressed in transfected cells
T1 sequence (P00439 1-452 R408W): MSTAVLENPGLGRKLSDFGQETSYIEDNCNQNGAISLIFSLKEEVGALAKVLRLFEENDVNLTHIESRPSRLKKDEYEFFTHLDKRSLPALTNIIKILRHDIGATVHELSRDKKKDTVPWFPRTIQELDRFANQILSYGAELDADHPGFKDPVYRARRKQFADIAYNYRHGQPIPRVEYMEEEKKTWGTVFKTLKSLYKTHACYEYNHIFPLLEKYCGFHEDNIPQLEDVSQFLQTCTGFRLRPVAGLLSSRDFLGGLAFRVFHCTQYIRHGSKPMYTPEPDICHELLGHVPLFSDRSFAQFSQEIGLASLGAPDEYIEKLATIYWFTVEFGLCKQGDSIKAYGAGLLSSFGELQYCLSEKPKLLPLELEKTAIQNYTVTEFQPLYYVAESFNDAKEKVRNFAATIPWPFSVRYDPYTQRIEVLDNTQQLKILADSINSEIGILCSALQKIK
The experiment is described as follows: Cell Based Phenylalanine Flux Assay. As to conditions: A375 R408W cells; 24 hrs with compound, then 20 μM sepiapterin and 800 μM 13C9,15N-Phenylalanine for 4 hours; 13C-Tyrosine by LC-MS; average where tested multiple times. In a few lines: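 A375 cells stably expressing human PAH R408W treated 24 h at 37° C with a 10-point 2-fold dose curve in duplicate, 0.5% DMSO. Then 20 μM sepiapterin and 800 μM 13C9,15N-Phe added for 4 h; 13C-Tyr in media measured by LC-MS to give AC50.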
With `CC(C)(O)c1nc(C(F)F)c(C(=O)N2CCc3[nH]cnc3[C@H]2c2nc3cccc(C(F)(F)F)c3o2)o1` [Example 453, (S)-(4-(difluoromethyl)-2-(2-hydroxypropan-2-yl)oxazol-5-yl)(4-(7-(trifluoromethyl)benzo[d]oxazol-2-yl)-6,7-dihydro-1H-imidazo[4,5-c]pyridin-5(4H)-yl)methanone], the AC50 (usually the concentration giving half of the maximal activity seen) was not above 500 nM.
In the case of `CC(C)(O)c1nc(C(F)F)c(C(=O)N2CCc3[nH]cnc3[C@@H]2c2nc3cccc(C(F)(F)F)c3o2)o1` [Example 454, (R)-(4-(difluoromethyl)-2-(2-hydroxypropan-2-yl)oxazol-5-yl)(4-(7-(trifluoromethyl)benzo[d]oxazol-2-yl)-6,7-dihydro-1H-imidazo[4,5-c]pyridin-5(4H)-yl)methanone] it was 1000 to 5000 nM; in that of `COc1cccc2nc([C@@H]3c4nc[nH]c4CCN3C(=O)c3oc(C(C)(C)O)nc3C(F)F)oc12` [Example 455, (S)-(4-(difluoromethyl)-2-(2-hydroxypropan-2-yl)oxazol-5-yl)(4-(7-methoxybenzo[d]oxazol-2-yl)-6,7-dihydro-1H-imidazo[4,5-c]pyridin-5(4H)-yl)methanone], not above 500 nM.
In the case of `COc1cccc2nc([C@H]3c4nc[nH]c4CCN3C(=O)c3oc(C(C)(C)O)nc3C(F)F)oc12` [Example 456, (R)-(4-(difluoromethyl)-2-(2-hydroxypropan-2-yl)oxazol-5-yl)(4-(7-methoxybenzo[d]oxazol-2-yl)-6,7-dihydro-1H-imidazo[4,5-c]pyridin-5(4H)-yl)methanone] it was 1000 to 5000 nM; in that of `COc1cccc2nc([C@@H]3c4nc[nH]c4CCN3C(=O)c3ocnc3C(F)F)oc12` [Example 457, (S)-(4-(difluoromethyl)oxazol-5-yl)(4-(7-methoxybenzo[d]oxazol-2-yl)-6,7-dihydro-1H-imidazo[4,5-c]pyridin-5(4H)-yl)methanone], not above 500 nM; in that of `COc1cccc2nc([C@H]3c4nc[nH]c4CCN3C(=O)c3ocnc3C(F)F)oc12` [Example 458, (R)-(4-(difluoromethyl)oxazol-5-yl)(4-(7-methoxybenzo[d]oxazol-2-yl)-6,7-dihydro-1H-imidazo[4,5-c]pyridin-5(4H)-yl)methanone], not above 500 nM.
Next, `CC(C)(O)c1nc(C(F)F)c(C(=O)N2CCc3[nH]cnc3[C@@H]2c2nc3cccc(Br)c3o2)o1` [Example 459, (R)-(4-(7-bromobenzo[d]oxazol-2-yl)-6,7-dihydro-1H-imidazo[4,5-c]pyridin-5(4H)-yl)(4-(difluoromethyl)-2-(2-hydroxypropan-2-yl)oxazol-5-yl)methanone]: not above 500 nM; `CC(C)(O)c1nc(C(F)F)c(C(=O)N2CCc3[nH]cnc3[C@H]2c2nc3cccc(Br)c3o2)o1` [Example 460, (S)-(4-(7-bromobenzo[d]oxazol-2-yl)-6,7-dihydro-1H-imidazo[4,5-c]pyridin-5(4H)-yl)(4-(difluoromethyl)-2-(2-hydroxypropan-2-yl)oxazol-5-yl)methanone]: not above 500 nM; `O=C(c1ocnc1C(F)F)N1CCc2[nH]cnc2[C@H]1c1nc2cccc(Br)c2o1` [Example 461, (S)-(4-(7-bromobenzo[d]oxazol-2-yl)-6,7-dihydro-1H-imidazo[4,5-c]pyridin-5(4H)-yl)(4-(difluoromethyl)oxazol-5-yl)methanone]: not above 500 nM.
In the case of `O=C(c1ocnc1C(F)F)N1CCc2[nH]cnc2[C@@H]1c1nc2cccc(Br)c2o1` [Example 462, (R)-(4-(7-bromobenzo[d]oxazol-2-yl)-6,7-dihydro-1H-imidazo[4,5-c]pyridin-5(4H)-yl)(4-(difluoromethyl)oxazol-5-yl)methanone], the AC50 was not above 500 nM.
Next, `CC(C)(O)c1nc(C(F)F)c(C(=O)N2CCc3[nH]cnc3[C@H]2c2nc3c(C(F)(F)F)cccc3o2)o1` [Example 463, (S)-(4-(difluoromethyl)-2-(2-hydroxypropan-2-yl)oxazol-5-yl)(4-(4-(trifluoromethyl)benzo[d]oxazol-2-yl)-6,7-dihydro-1H-imidazo[4,5-c]pyridin-5(4H)-yl)methanone]: not above 500 nM; `CC(C)(O)c1nc(C(F)F)c(C(=O)N2CCc3[nH]cnc3[C@@H]2c2nc3c(C(F)(F)F)cccc3o2)o1` [Example 464, (R)-(4-(difluoromethyl)-2-(2-hydroxypropan-2-yl)oxazol-5-yl)(4-(4-(trifluoromethyl)benzo[d]oxazol-2-yl)-6,7-dihydro-1H-imidazo[4,5-c]pyridin-5(4H)-yl)methanone]: 500 to 1000 nM; `O=C(c1ocnc1C(F)F)N1CCc2[nH]cnc2[C@H]1c1nc2c(C(F)(F)F)cccc2o1` [Example 465, (S)-(4-(difluoromethyl)oxazol-5-yl)(4-(4-(trifluoromethyl)benzo[d]oxazol-2-yl)-6,7-dihydro-1H-imidazo[4,5-c]pyridin-5(4H)-yl)methanone]: not above 500 nM.
`O=C(c1ocnc1C(F)F)N1CCc2[nH]cnc2[C@@H]1c1nc2c(C(F)(F)F)cccc2o1` [Example 466, (R)-(4-(difluoromethyl)oxazol-5-yl)(4-(4-(trifluoromethyl)benzo[d]oxazol-2-yl)-6,7-dihydro-1H-imidazo[4,5-c]pyridin-5(4H)-yl)methanone]: the AC50 is 500 to 1000 nM.
Regarding `O=C(c1ocnc1C(F)F)N1CCc2[nH]cnc2[C@H]1c1nc2ccccc2o1` [Example 467, (S)-(4-(benzo[d]oxazol-2-yl)-6,7-dihydro-1H-imidazo[4,5-c]pyridin-5(4H)-yl)(4-(difluoromethyl)oxazol-5-yl)methanone], the AC50 is not above 500 nM.
As to `O=C(c1ocnc1C(F)F)N1CCc2[nH]cnc2[C@@H]1c1nc2ccccc2o1` [Example 468, (R)-(4-(benzo[d]oxazol-2-yl)-6,7-dihydro-1H-imidazo[4,5-c]pyridin-5(4H)-yl)(4-(difluoromethyl)oxazol-5-yl)methanone], the AC50 was 500 to 1000 nM.
In the case of `CC(C)(O)c1nc(C(F)F)c(C(=O)N2CCc3[nH]cnc3[C@@H]2c2nc3ccccc3o2)o1` [Example 469, (R)-(4-(benzo[d]oxazol-2-yl)-6,7-dihydro-1H-imidazo[4,5-c]pyridin-5(4H)-yl)(4-(difluoromethyl)-2-(2-hydroxypropan-2-yl)oxazol-5-yl)methanone] it was 1000 to 5000 nM; in that of `CC(C)(O)c1nc(C(F)F)c(C(=O)N2CCc3[nH]cnc3[C@H]2c2nc3ccccc3o2)o1` [Example 470, (S)-(4-(benzo[d]oxazol-2-yl)-6,7-dihydro-1H-imidazo[4,5-c]pyridin-5(4H)-yl)(4-(difluoromethyl)-2-(2-hydroxypropan-2-yl)oxazol-5-yl)methanone], not above 500 nM.
With `Cn1nc(Br)nc1C(=O)N1CCc2[nH]cnc2[C@H]1c1nc2c(F)cccc2o1` [Example 471, (S)-(3-bromo-1-methyl-1H-1,2,4-triazol-5-yl)(4-(4-fluorobenzo[d]oxazol-2-yl)-6,7-dihydro-1H-imidazo[4,5-c]pyridin-5(4H)-yl)methanone], the concentration at half-maximal activity (AC50) lay within 500 to 1000 nM.
In the case of `Cn1nc(Br)nc1C(=O)N1CCc2[nH]cnc2[C@@H]1c1nc2c(F)cccc2o1` [Example 472, (R)-(3-bromo-1-methyl-1H-1,2,4-triazol-5-yl)(4-(4-fluorobenzo[d]oxazol-2-yl)-6,7-dihydro-1H-imidazo[4,5-c]pyridin-5(4H)-yl)methanone] it was 1000 to 5000 nM.
Turning to `Cn1nc(Br)nc1C(=O)N1CCc2[nH]cnc2[C@H]1c1nc2cccc(F)c2o1` [Example 473, (S)-(3-bromo-1-methyl-1H-1,2,4-triazol-5-yl)(4-(7-fluorobenzo[d]oxazol-2-yl)-6,7-dihydro-1H-imidazo[4,5-c]pyridin-5(4H)-yl)methanone], the AC50 fell in the range of 500 to 1000 nM.
As to `Cn1nc(Br)nc1C(=O)N1CCc2[nH]cnc2[C@@H]1c1nc2cccc(F)c2o1` [Example 474, (R)-(3-bromo-1-methyl-1H-1,2,4-triazol-5-yl)(4-(7-fluorobenzo[d]oxazol-2-yl)-6,7-dihydro-1H-imidazo[4,5-c]pyridin-5(4H)-yl)methanone], the AC50 lay within 1000 to 5000 nM.
As for `CN1CCN(c2ccc3c(C(=O)N4CCc5[nH]cnc5[C@H]4c4nc5c(F)cccc5o4)cnn3c2)CC1` [Example 475, (S)-(4-(4-fluorobenzo[d]oxazol-2-yl)-6,7-dihydro-1H-imidazo[4,5-c]pyridin-5(4H)-yl)(6-(4-methylpiperazin-1-yl)pyrazolo[1,5-a]pyridin-3-yl)methanone], the AC50 is not above 500 nM.
Next, `CN1CCN(c2ccc3c(C(=O)N4CCc5[nH]cnc5[C@@H]4c4nc5c(F)cccc5o4)cnn3c2)CC1` [Example 476, (R)-(4-(4-fluorobenzo[d]oxazol-2-yl)-6,7-dihydro-1H-imidazo[4,5-c]pyridin-5(4H)-yl)(6-(4-methylpiperazin-1-yl)pyrazolo[1,5-a]pyridin-3-yl)methanone]: 1000 to 5000 nM; `O=C(c1cnn2cc(N3CCC(F)CC3)ccc12)N1CCc2[nH]cnc2[C@H]1c1nc2c(F)cccc2o1` [Example 477, (S)-(4-(4-fluorobenzo[d]oxazol-2-yl)-6,7-dihydro-1H-imidazo[4,5-c]pyridin-5(4H)-yl)(6-(4-fluoropiperidin-1-yl)pyrazolo[1,5-a]pyridin-3-yl)methanone]: not above 500 nM.
